# Results published in US9096591B2, “Tetracyclic compounds” (Medivation Technologies, Inc., priority 2007, dated 2015).
# Where two headings read alike, the source gives them in different places.
# Experiments:
# [1] = biological target: T1, human recombinant adrenergic α2A receptor (Homo sapiens, UniProt P08913); experiment: Adrenergic α2A radioligand binding ([3H]MK-912); set-up: Inhibition of ligand binding, Adren. alpha2A: concentration or dose not given beside the values; details: percent inhibition of specific binding
# T1 construct: expressed in transfected cells; host or cells: insect Sf9 cells
# T1 sequence (P08913 1-465): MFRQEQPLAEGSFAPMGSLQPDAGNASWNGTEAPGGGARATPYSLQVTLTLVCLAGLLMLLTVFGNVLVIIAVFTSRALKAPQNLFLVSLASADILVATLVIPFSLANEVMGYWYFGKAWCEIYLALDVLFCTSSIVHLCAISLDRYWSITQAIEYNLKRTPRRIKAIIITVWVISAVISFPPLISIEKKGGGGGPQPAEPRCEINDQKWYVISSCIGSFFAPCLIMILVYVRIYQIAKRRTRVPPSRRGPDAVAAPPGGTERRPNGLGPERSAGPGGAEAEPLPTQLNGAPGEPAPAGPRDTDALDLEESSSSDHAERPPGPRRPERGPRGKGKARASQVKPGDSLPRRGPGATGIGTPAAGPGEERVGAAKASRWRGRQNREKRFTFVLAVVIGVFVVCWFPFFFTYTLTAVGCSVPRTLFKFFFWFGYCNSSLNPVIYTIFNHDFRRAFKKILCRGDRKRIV
# How it was run: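 Membranes from Sf9 cells expressing the receptor were incubated with 1 nM [3H]MK-912 for 60 minutes at 25° C in 50 mM Tris-HCl pH 7.4, 12.5 mM MgCl2, 2 mM EDTA. 10 μM WB-4101 defined non-specific binding. Values are percent inhibition of specific bound radioactivity after filtration.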
# [2] = biological target: T2, human recombinant dopamine D2L receptor (Homo sapiens, UniProt P14416); experiment: Dopamine D2L radioligand binding ([3H]Spiperone); details: percent inhibition of specific binding
# T2 construct: expressed in transfected cells; host or cells: CHO cells
# Method: Non-specific binding was estimated in the presence of 10 μM Haloperidol. Receptor proteins were filtered and washed, the filters were then counted to determine [^3H]Spiperone specifically bound. […] Biochemical assay results are presented as the percent inhibition of specific binding in Table 6.
# [3] = biological target: T3, human recombinant histamine H1 receptor (Homo sapiens, UniProt P35367); experiment: Histamine H1 radioligand binding ([3H]Pyrilamine)
# T3 construct: expressed in transfected cells; host or cells: CHO cells
# How it was run: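 CHO-expressed receptor in modified Tris-HCl buffer (50 mM, pH 7.4; 2 mM MgCl2, 100 mM NaCl, 250 mM sucrose); bound ligand measured after filtration and washing.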
# [4] = biological target: T4, human recombinant serotonin (5-Hydroxytryptamine) 5-HT6 receptor (Homo sapiens, UniProt P50406); experiment: Serotonin 5-HT6 radioligand binding ([3H]LSD); set-up: Inhibition of ligand binding, Ser. 5-HT6: concentration or dose not given beside the values; details: percent inhibition of specific binding
# T4 construct: expressed in transfected cells; host or cells: human HeLa cells
# Text: Receptor proteins were filtered and washed, the filters were then counted to determine [3H]LSD specifically bound. […] Biochemical assay results are presented as the percent inhibition of specific binding in Table 6.
# [5] = biological target: T5, human recombinant adrenergic α2B receptor (Homo sapiens, UniProt P18089); experiment: Adrenergic α2B radioligand binding ([3H]Rauwolscine); set-up: Inhibition of ligand binding, Adren. alpha2B: concentration or dose not given beside the values; details: percent inhibition of specific binding
# T5 construct: expressed in transfected cells; host or cells: CHO-K1 cells
# T5 sequence (P18089 1-450): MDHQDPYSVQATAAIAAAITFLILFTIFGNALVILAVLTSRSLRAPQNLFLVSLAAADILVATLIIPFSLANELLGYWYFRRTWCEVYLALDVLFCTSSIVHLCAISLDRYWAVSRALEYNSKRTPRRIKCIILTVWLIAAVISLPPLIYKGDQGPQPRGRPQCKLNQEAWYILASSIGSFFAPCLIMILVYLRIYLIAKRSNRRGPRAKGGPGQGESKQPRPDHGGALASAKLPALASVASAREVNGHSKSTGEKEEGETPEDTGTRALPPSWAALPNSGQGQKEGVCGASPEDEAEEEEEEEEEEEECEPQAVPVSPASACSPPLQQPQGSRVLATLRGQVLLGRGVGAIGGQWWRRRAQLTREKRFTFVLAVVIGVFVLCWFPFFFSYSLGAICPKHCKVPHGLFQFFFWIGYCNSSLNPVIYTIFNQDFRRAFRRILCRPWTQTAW
# How it was run: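 Incubation ran 60 minutes at 25 °C in modified Tris-HCl buffer (50 mM, pH 7.4, 12.5 mM MgCl2, 1 mM EDTA, 0.2% BSA) using CHO-K1-expressed human receptor.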
# [6] = 1 μM compound, […] [3H]Pyrilamine, read-out: Histamine Binding H1, percent inhibition of specific binding
# [7] = percent inhibition of specific binding, screened at 1 μM, read-out: Inhibition of ligand binding, Hist. H1
# T4 sequence (P50406 whole entry): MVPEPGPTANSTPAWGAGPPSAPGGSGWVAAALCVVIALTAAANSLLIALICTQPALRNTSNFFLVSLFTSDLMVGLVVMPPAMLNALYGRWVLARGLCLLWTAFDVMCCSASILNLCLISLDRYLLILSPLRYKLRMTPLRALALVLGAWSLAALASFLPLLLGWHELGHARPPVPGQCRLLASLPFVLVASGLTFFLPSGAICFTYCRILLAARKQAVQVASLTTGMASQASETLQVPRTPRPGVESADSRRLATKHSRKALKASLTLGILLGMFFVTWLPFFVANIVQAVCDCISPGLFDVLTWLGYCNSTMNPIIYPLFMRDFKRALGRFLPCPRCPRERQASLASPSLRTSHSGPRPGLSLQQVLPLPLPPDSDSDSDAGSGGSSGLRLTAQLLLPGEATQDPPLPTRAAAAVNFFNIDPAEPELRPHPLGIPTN
# T3 sequence (P35367 whole entry): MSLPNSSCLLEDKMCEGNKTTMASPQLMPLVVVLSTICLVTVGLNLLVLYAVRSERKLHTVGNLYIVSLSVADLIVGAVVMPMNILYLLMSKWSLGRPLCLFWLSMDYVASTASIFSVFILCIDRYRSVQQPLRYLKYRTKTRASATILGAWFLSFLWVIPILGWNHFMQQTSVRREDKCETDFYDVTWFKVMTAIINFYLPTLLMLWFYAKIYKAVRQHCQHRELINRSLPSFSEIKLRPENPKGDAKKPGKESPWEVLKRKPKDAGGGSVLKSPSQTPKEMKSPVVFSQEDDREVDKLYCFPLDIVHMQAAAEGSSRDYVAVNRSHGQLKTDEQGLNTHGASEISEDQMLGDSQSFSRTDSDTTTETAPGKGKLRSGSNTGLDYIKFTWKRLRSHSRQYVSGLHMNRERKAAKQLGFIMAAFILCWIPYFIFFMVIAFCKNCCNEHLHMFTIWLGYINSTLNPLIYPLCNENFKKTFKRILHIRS
# T2 sequence (P14416 whole entry): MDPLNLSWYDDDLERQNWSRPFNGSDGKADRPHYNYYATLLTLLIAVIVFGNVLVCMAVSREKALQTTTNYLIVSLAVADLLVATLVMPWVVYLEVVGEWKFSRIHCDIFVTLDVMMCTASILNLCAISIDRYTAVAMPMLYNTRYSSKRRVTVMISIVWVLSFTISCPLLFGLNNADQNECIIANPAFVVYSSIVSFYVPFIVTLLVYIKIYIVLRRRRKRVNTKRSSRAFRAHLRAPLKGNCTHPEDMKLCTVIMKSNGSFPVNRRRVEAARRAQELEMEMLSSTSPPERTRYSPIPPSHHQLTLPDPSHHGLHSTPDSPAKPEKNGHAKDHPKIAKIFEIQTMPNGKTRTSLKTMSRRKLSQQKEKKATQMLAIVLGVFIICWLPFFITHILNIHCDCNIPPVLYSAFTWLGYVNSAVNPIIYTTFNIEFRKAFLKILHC
smiles,measurement,setting,value
"CN1CCc2c(c3cc(Cl)ccc3n2CCC(=O)N2CCCC2)C1 [Compound 240, 3-(8-chloro-1,2,3,4-tetrahydro-2-methylpyrido[4,3-b]indol-5-yl)-1-(pyrrolidin-1-yl)propan-1-one]","Inhibition of ligand binding, Adren. alpha2A",[1],36%
same,"Inhibition of ligand binding, Dop. D2L",[2],9%
same,inhibition at 1 µM,[3]; [6],60%
same,inhibition at 1 µM,[3]; [7],60%
same,"Inhibition of ligand binding, Ser. 5-HT6",[4],25%
same,"Inhibition of ligand binding, Adren. alpha2B",[5],50%
"CN1CCc2c(c3cc(Cl)ccc3n2CC(=O)N2CCCC2)C1 [Compound 243, 2-(8-chloro-1,2,3,4-tetrahydro-2-methylpyrido[4,3-b]indol-5-yl)-1-(pyrrolidin-1-yl)ethanone]","Inhibition of ligand binding, Adren. alpha2A",[1],3%
same,"Inhibition of ligand binding, Dop. D2L",[2],8%
same,inhibition at 1 µM,[3]; [6],84%
same,inhibition at 1 µM,[3]; [7],84%
same,"Inhibition of ligand binding, Ser. 5-HT6",[4],12%
same,"Inhibition of ligand binding, Adren. alpha2B",[5],6%
CN1CCc2c(c3cc(Cl)ccc3n2CC(=O)N2CCNCC2)C1 [Compound 244],"Inhibition of ligand binding, Adren. alpha2A",[1],22%
same,"Inhibition of ligand binding, Dop. D2L",[2],6%
same,inhibition at 1 µM,[3]; [6],15%
same,inhibition at 1 µM,[3]; [7],15%
same,"Inhibition of ligand binding, Ser. 5-HT6",[4],13%
same,"Inhibition of ligand binding, Adren. alpha2B",[5],13%
CC1CN(C(=O)Cn2c3c(c4cc(Cl)ccc42)CN(C)CC3)CC(C)N1 (stereo not drawn) [Compound 245],"Inhibition of ligand binding, Adren. alpha2A",[1],8%
same,"Inhibition of ligand binding, Dop. D2L",[2],4%
same,inhibition at 1 µM,[3]; [6],22%
same,inhibition at 1 µM,[3]; [7],22%
same,"Inhibition of ligand binding, Ser. 5-HT6",[4],−2%
same,"Inhibition of ligand binding, Adren. alpha2B",[5],19%
CN1CCc2c(c3cc(Cl)ccc3n2CC(=O)N2CCNC(=O)C2)C1 [Compound 246],"Inhibition of ligand binding, Adren. alpha2A",[1],21%
same,"Inhibition of ligand binding, Dop. D2L",[2],1%
same,inhibition at 1 µM,[3]; [6],18%
same,inhibition at 1 µM,[3]; [7],18%
same,"Inhibition of ligand binding, Ser. 5-HT6",[4],2%
same,"Inhibition of ligand binding, Adren. alpha2B",[5],11%
COc1ccc(CCn2c3c(c4cc(C)ccc42)CN(C)CC3)cc1 [Compound 247],"Inhibition of ligand binding, Adren. alpha2A",[1],99%
same,"Inhibition of ligand binding, Dop. D2L",[2],87%
same,inhibition at 1 µM,[3]; [6],100%
same,inhibition at 1 µM,[3]; [7],100%
same,"Inhibition of ligand binding, Ser. 5-HT6",[4],107%
same,"Inhibition of ligand binding, Adren. alpha2B",[5],103%
Cc1ccc2c(c1)c1c(n2CCc2ccc(CO)nc2)CCN(C)C1 [Compound 267],"Inhibition of ligand binding, Adren. alpha2A",[1],49%
same,"Inhibition of ligand binding, Dop. D2L",[2],21%
same,inhibition at 1 µM,[3]; [7],96%
same,"Inhibition of ligand binding, Ser. 5-HT6",[4],69%
same,"Inhibition of ligand binding, Adren. alpha2B",[5],100%
"CCOC(=O)c1ccc(CCn2c3c(c4cc(C)ccc42)CN(C)CC3)cn1 [Compound 275, ethyl 5-(2-(1,2,3,4-tetrahydro-2,8-dimethylpyrido[4,3-b]indol-5-yl)ethyl)pyridine-2-carboxylate]","Inhibition of ligand binding, Adren. alpha2A",[1],29%
same,"Inhibition of ligand binding, Dop. D2L",[2],4%
same,inhibition at 1 µM,[3]; [7],92%
same,"Inhibition of ligand binding, Ser. 5-HT6",[4],56%
same,"Inhibition of ligand binding, Adren. alpha2B",[5],92%
CN1CCc2c(c3cc(Cl)ccc3n2CC(=O)N2CCS(=O)(=O)CC2)C1 [Compound 295],"Inhibition of ligand binding, Adren. alpha2A",[1],26%
same,"Inhibition of ligand binding, Dop. D2L",[2],−7%
same,inhibition at 1 µM,[3]; [7],-3%
same,"Inhibition of ligand binding, Ser. 5-HT6",[4],−1%
same,"Inhibition of ligand binding, Adren. alpha2B",[5],18%
"CN1CCc2c(c3cc(Cl)ccc3n2CC(=O)N2CC[S+]([O-])CC2)C1 [Compound 296, 2-(8-Chloro-2-methyl-1,2,3,4-tetrahydro-pyrido[4,3-b]indol-5-yl)-1-(1-oxo-1l4-thiomorpholin-4-yl)-ethanone]","Inhibition of ligand binding, Adren. alpha2A",[1],1%
same,"Inhibition of ligand binding, Dop. D2L",[2],3%
same,inhibition at 1 µM,[3]; [7],36%
same,"Inhibition of ligand binding, Ser. 5-HT6",[4],3%
same,"Inhibition of ligand binding, Adren. alpha2B",[5],−8%
"CC(=O)N1CCN(C(=O)Cn2c3c(c4cc(Cl)ccc42)CN(C)CC3)CC1 [Compound 297, 1-(4-Acetyl-piperazin-1-yl)-2-(8-chloro-2-methyl-1,2,3,4-tetrahydro-pyrido[4,3-b]indol-5-yl)-ethanone]","Inhibition of ligand binding, Adren. alpha2A",[1],−2%
same,"Inhibition of ligand binding, Dop. D2L",[2],0%
same,inhibition at 1 µM,[3]; [7],43%
same,"Inhibition of ligand binding, Ser. 5-HT6",[4],9%
same,"Inhibition of ligand binding, Adren. alpha2B",[5],7%
"CC1CCCCN1C(=O)Cn1c2c(c3cc(Cl)ccc31)CN(C)CC2 (stereo not drawn) [Compound 321, 2-(8-chloro-1,2,3,4-tetrahydro-2-methylpyrido[4,3-b]indol-5-yl)-1-(2-methylpiperidin-1-yl)ethanone]","Inhibition of ligand binding, Adren. alpha2A",[1],12%
same,"Inhibition of ligand binding, Dop. D2L",[2],−1%
same,inhibition at 1 µM,[3]; [7],50%
same,"Inhibition of ligand binding, Ser. 5-HT6",[4],15%
same,"Inhibition of ligand binding, Adren. alpha2B",[5],25%
"Cc1ccc2c(c1)c1c(n2CCc2cnc(C)cn2)CCN(C)C1 [Compound 322, 2,8-dimethyl-5-(2-(5-methylpyrazin-2-yl)ethyl)-2,3,4,5-tetrahydro-1H-pyrido[4,3-b]indole]","Inhibition of ligand binding, Adren. alpha2A",[1],44%
same,"Inhibition of ligand binding, Dop. D2L",[2],5%
same,inhibition at 1 µM,[3]; [7],89%
same,"Inhibition of ligand binding, Ser. 5-HT6",[4],75%
same,"Inhibition of ligand binding, Adren. alpha2B",[5],115%
"Cc1ccc2c(c1)c1c(n2CCc2cnc(C)nc2)CCN(C)C1 [Compound 323, 2,3,4,5-tetrahydro-2,8-dimethyl-5-(2-(2-methylpyrimidin-5-yl)ethyl)-1H-pyrido[4,3-b]indole]","Inhibition of ligand binding, Adren. alpha2A",[1],6%
same,"Inhibition of ligand binding, Dop. D2L",[2],8%
same,inhibition at 1 µM,[3]; [7],93%
same,"Inhibition of ligand binding, Ser. 5-HT6",[4],69%
same,"Inhibition of ligand binding, Adren. alpha2B",[5],62%
"CN1CCc2c(c3cc(Cl)ccc3n2CCCc2ccc(C(F)(F)F)nc2)C1 [Compound 324, 8-chloro-5-(3-(6-(trifluoromethyl)pyridin-3-yl)propyl)-2,3,4,5-tetrahydro-2-methyl-1H-pyrido[4,3-b]indole]","Inhibition of ligand binding, Adren. alpha2A",[1],60%
same,"Inhibition of ligand binding, Dop. D2L",[2],28%
same,inhibition at 1 µM,[3]; [7],101%
same,"Inhibition of ligand binding, Ser. 5-HT6",[4],93%
same,"Inhibition of ligand binding, Adren. alpha2B",[5],98%
"CC1CCN(C(=O)CCn2c3c(c4cc(Cl)ccc42)CN(C)CC3)CC1 [Compound 325, 3-(8-chloro-1,2,3,4-tetrahydro-2-methylpyrido[4,3-b]indol-5-yl)-1-(4-methylpiperidin-1-yl)propan-1-one]","Inhibition of ligand binding, Adren. alpha2A",[1],58%
same,"Inhibition of ligand binding, Dop. D2L",[2],−3%
same,inhibition at 1 µM,[3]; [7],90%
same,"Inhibition of ligand binding, Ser. 5-HT6",[4],41%
same,"Inhibition of ligand binding, Adren. alpha2B",[5],58%
"CN1CCc2c(c3cc(Cl)ccc3n2CCC(=O)N2CCCCC2)C1 [Compound 326, 3-(8-chloro-1,2,3,4-tetrahydro-2-methylpyrido[4,3-b]indol-5-yl)-1-(piperidin-1-yl)propan-1-one]","Inhibition of ligand binding, Adren. alpha2A",[1],55%
same,"Inhibition of ligand binding, Dop. D2L",[2],−5%
same,inhibition at 1 µM,[3]; [7],47%
same,"Inhibition of ligand binding, Ser. 5-HT6",[4],26%
same,"Inhibition of ligand binding, Adren. alpha2B",[5],52%
"CN1CCc2c(c3cc(Cl)ccc3n2CCC(=O)N2CCOCC2)C1 [Compound 328, 3-(8-chloro-1,2,3,4-tetrahydro-2-methylpyrido[4,3-b]indol-5-yl)-1-morpholinopropan-1-one]","Inhibition of ligand binding, Adren. alpha2A",[1],45%
same,"Inhibition of ligand binding, Dop. D2L",[2],6%
same,inhibition at 1 µM,[3]; [7],56%
same,"Inhibition of ligand binding, Ser. 5-HT6",[4],29%
same,"Inhibition of ligand binding, Adren. alpha2B",[5],21%
